Each block holds one compound with its values, some of them ahead of it.
What was measured:
[1] = test system: Nucleic Acid; experiment: Ratio of drug level in Sprague-Dawley rat brain to plasma assessed as ((R)-6-(5-chloropyridin-2-yl)-3-(4-(3-hydroxypyrrolidin-1-yl)-3-methoxyphenyl)pyrrolo[1,2-f][1,2,4]triazin-4(3H)-one level at 10 mg/kg, po qd; type: ADME, organism-based
[2] = test system: Brain; experiment: Drug concentration in Sprague-Dawley rat brain assessed as ((R)-6-(5-chloropyridin-2-yl)-3-(4-(3-hydroxypyrrolidin-1-yl)-3-methoxyphenyl)pyrrolo[1,2-f][1,2,4]triazin-4(3H)-one level at 10 mg/kg, po qd at 8 hrs; type: ADME, organism-based; details: in vivo, read-out: Drug uptake
[3] = test system: Plasma; experiment: Plasma concentration in Sprague-Dawley rat assessed as ((R)-6-(5-chloropyridin-2-yl)-3-(4-(3-hydroxypyrrolidin-1-yl)-3-methoxyphenyl)pyrrolo[1,2-f][1,2,4]triazin-4(3H)-one level at 10 mg/kg, po qd at 8 hrs; type: ADME, organism-based; details: in vivo
[4] = test system: Brain; experiment: Free drug level in Sprague-Dawley rat brain assessed as 6-(5-chloropyridin-2-yl)-3-(4-((3,3-difluoro-1-hydroxycyclobutyl)methoxy)-3-methoxyphenyl)pyrrolo[1,2-f][1,2,4]triazin-4(3H)-one level at 10 mg/kg, po qd at 20 hrs; type: ADME, organism-based; details: in vivo
[5] = test system: Brain; experiment: Drug concentration in Sprague-Dawley rat brain assessed as 6-(5-chloropyridin-2-yl)-3-(4-((3,3-difluoro-1-hydroxycyclobutyl)methoxy)-3-methoxyphenyl)pyrrolo[1,2-f][1,2,4]triazin-4(3H)-one level at 10 mg/kg, po qd at 8 hrs; type: ADME, organism-based; details: in vivo, read-out: Drug uptake
[6] = test system: Plasma; experiment: Fraction unbound in Sprague-Dawley rat plasma assessed as 6-(5-chloropyridin-2-yl)-3-(4-((3,3-difluoro-1-hydroxycyclobutyl)methoxy)-3-methoxyphenyl)pyrrolo[1,2-f][1,2,4]triazin-4(3H)-one level; type: ADME, cell-free
[7] = Ratio of free drug level in brain of Sprague-Dawley rat assessed as 6-(5-chloropyridin-2-yl)-3-(4-((3,3-difluoro-1-hydroxycyclobutyl)methoxy)-3-methoxyphenyl)pyrrolo[1,2-f][1,2,4]triazin-4(3H)-one level at 10 mg/kg, po to Ki for rat MCHR1; type: ADME, organism-based; details: in vivo
[8] = test system: Brain; experiment: Free drug level in Sprague-Dawley rat brain assessed as 6-(5-chloropyridin-2-yl)-3-(4-((3,3-difluoro-1-hydroxycyclobutyl)methoxy)-3-methoxyphenyl)pyrrolo[1,2-f][1,2,4]triazin-4(3H)-one level at 30 mg/kg, po qd at 20 hrs; type: ADME, organism-based; details: in vivo
[9] = test system: Nucleic Acid; experiment: Ratio of drug level in Sprague-Dawley rat brain to plasma assessed as 6-(5-chloropyridin-2-yl)-3-(4-((3,3-difluoro-1-hydroxycyclobutyl)methoxy)-3-methoxyphenyl)pyrrolo[1,2-f][1,2,4]triazin-4(3H)-one level at 10 mg/kg, po qd; type: ADME, organism-based
[10] = test system: Rattus norvegicus; experiment: Antiobesity activity in Sprague-Dawley rat assessed as body weight reduction at 3 mg/kg, po qd after 4 days relative to control; type: functional; details: 96 h
[11] = test system: Brain; experiment: Free drug level in Sprague-Dawley rat brain assessed as 6-(5-chloropyridin-2-yl)-3-(4-((3,3-difluoro-1-hydroxycyclobutyl)methoxy)-3-methoxyphenyl)pyrrolo[1,2-f][1,2,4]triazin-4(3H)-one level at 3 mg/kg, po qd at 20 hrs; type: ADME, organism-based; details: in vivo
[12] = test system: Brain; experiment: Drug concentration in Sprague-Dawley rat brain assessed as 6-(5-chloropyridin-2-yl)-3-(4-((3,3-difluoro-1-hydroxycyclobutyl)methoxy)-3-methoxyphenyl)pyrrolo[1,2-f][1,2,4]triazin-4(3H)-one level at 30 mg/kg, po qd at 20 hrs; type: ADME, organism-based; details: in vivo, read-out: Drug uptake
[13] = Ratio of free drug level in brain of Sprague-Dawley rat assessed as 6-(5-chloropyridin-2-yl)-3-(4-((3,3-difluoro-1-hydroxycyclobutyl)methoxy)-3-methoxyphenyl)pyrrolo[1,2-f][1,2,4]triazin-4(3H)-one level at 3 mg/kg, po to Ki for rat MCHR1; type: ADME, organism-based; details: in vivo
[14] = test system: Rattus norvegicus; experiment: Antiobesity activity in Sprague-Dawley rat assessed as body weight reduction at 10 mg/kg, po qd after 4 days relative to control; type: functional; details: 96 h
[15] = Ratio of free drug level in brain of Sprague-Dawley rat assessed as 6-(5-chloropyridin-2-yl)-3-(4-((3,3-difluoro-1-hydroxycyclobutyl)methoxy)-3-methoxyphenyl)pyrrolo[1,2-f][1,2,4]triazin-4(3H)-one level at 30 mg/kg, po to Ki for rat MCHR1; type: ADME, organism-based; details: in vivo
[16] = test system: Brain; experiment: Drug concentration in Sprague-Dawley rat brain assessed as 6-(5-chloropyridin-2-yl)-3-(4-((3,3-difluoro-1-hydroxycyclobutyl)methoxy)-3-methoxyphenyl)pyrrolo[1,2-f][1,2,4]triazin-4(3H)-one level at 10 mg/kg, po qd at 20 hrs; type: ADME, organism-based; details: in vivo, read-out: Drug uptake
[17] = test system: Brain; experiment: Drug concentration in Sprague-Dawley rat brain assessed as 6-(5-chloropyridin-2-yl)-3-(4-((3,3-difluoro-1-hydroxycyclobutyl)methoxy)-3-methoxyphenyl)pyrrolo[1,2-f][1,2,4]triazin-4(3H)-one level at 3 mg/kg, po qd at 20 hrs; type: ADME, organism-based; details: in vivo, read-out: Drug uptake
[18] = test system: Plasma; experiment: Plasma concentration in Sprague-Dawley rat assessed as 6-(5-chloropyridin-2-yl)-3-(4-((3,3-difluoro-1-hydroxycyclobutyl)methoxy)-3-methoxyphenyl)pyrrolo[1,2-f][1,2,4]triazin-4(3H)-one level at 10 mg/kg, po qd at 8 hrs; type: ADME, organism-based; details: in vivo
[19] = test system: Rattus norvegicus; experiment: Antiobesity activity in Sprague-Dawley rat assessed as body weight reduction at 30 mg/kg, po qd after 4 days relative to control; type: functional; details: 96 h
[20] = test system: Plasma; experiment: Plasma concentration in Sprague-Dawley rat assessed as 6-(5-chloropyrimidin-2-yl)-3-(4-((3,3-difluoro-1-hydroxycyclobutyl)methoxy)-3-methoxyphenyl)pyrrolo[1,2-f][1,2,4]triazin-4(3H)-one level at 10 mg/kg, po qd at 8 hrs; type: ADME, organism-based; details: in vivo
[21] = test system: Nucleic Acid; experiment: Ratio of drug level in Sprague-Dawley rat brain to plasma assessed as 6-(5-chloropyrimidin-2-yl)-3-(4-((3,3-difluoro-1-hydroxycyclobutyl)methoxy)-3-methoxyphenyl)pyrrolo[1,2-f][1,2,4]triazin-4(3H)-one level at 10 mg/kg, po qd; type: ADME, organism-based
[22] = test system: Brain; experiment: Drug concentration in Sprague-Dawley rat brain assessed as 6-(5-chloropyrimidin-2-yl)-3-(4-((3,3-difluoro-1-hydroxycyclobutyl)methoxy)-3-methoxyphenyl)pyrrolo[1,2-f][1,2,4]triazin-4(3H)-one level at 10 mg/kg, po qd at 8 hrs; type: ADME, organism-based; details: in vivo, read-out: Drug uptake
[23] = test system: Plasma; experiment: Plasma concentration in Sprague-Dawley rat assessed as (S)-6-(5-chloropyrimidin-2-yl)-3-(4-(3-(ethylsulfonyl)-2-hydroxypropoxy)-3-methoxyphenyl)pyrrolo[1,2-f][1,2,4]triazin-4(3H)-one level at 10 mg/kg, po qd at 8 hrs; type: ADME, organism-based; details: in vivo
[24] = test system: Brain; experiment: Drug concentration in Sprague-Dawley rat brain assessed as (S)-6-(5-chloropyrimidin-2-yl)-3-(4-(3-(ethylsulfonyl)-2-hydroxypropoxy)-3-methoxyphenyl)pyrrolo[1,2-f][1,2,4]triazin-4(3H)-one level at 10 mg/kg, po qd at 8 hrs; type: ADME, organism-based; details: in vivo, read-out: Drug uptake
[25] = test system: Nucleic Acid; experiment: Ratio of drug level in Sprague-Dawley rat brain to plasma assessed as (S)-6-(5-chloropyrimidin-2-yl)-3-(4-(3-(ethylsulfonyl)-2-hydroxypropoxy)-3-methoxyphenyl)pyrrolo[1,2-f][1,2,4]triazin-4(3H)-one level at 10 mg/kg, po qd; type: ADME, organism-based

BPR [1]: 0.1
concentration [2]: 0.664 µM
concentration [3]: 4.59 µM
Structure (SMILES): COc1cc(-n2cnn3cc(-c4ccc(Cl)cn4)cc3c2=O)ccc1N1CC[C@@H](OC(=O)[C@@H](N)C(C)C)C1

Drug uptake(free) [4]: 616 nM
concentration [5]: 3.59 µM
Fu [6]: <= 0.1%
Ratio [7]: <= 2.5
Drug uptake(free) [8]: 624 nM
BPR [9]: 0.6
Drug uptake(free) [11]: 63.9 nM
concentration [12]: 23.9 µM
Ratio [13]: <= 0.6
Ratio [15]: <= 3.7
concentration [16]: 16 µM
concentration [17]: 3.87 µM
concentration [18]: 5.59 µM
Structure (SMILES): COc1cc(-n2cnn3cc(-c4ccc(Cl)cn4)cc3c2=O)ccc1OCC1(OC(=O)CN)CC(F)(F)C1
inhibition in vivo at 3 mg/kg [10]: 1.6%
inhibition in vivo at 10 mg/kg [14]: 4.4%
inhibition in vivo at 30 mg/kg [19]: 13%

concentration [20]: 1.13 µM
BPR [21]: 0.7
concentration [22]: 0.805 µM
Structure (SMILES): COc1cc(-n2cnn3cc(-c4ncc(Cl)cn4)cc3c2=O)ccc1OCC1(OC(=O)CN)CC(F)(F)C1

concentration [23]: 3.96 µM
concentration [24]: 0.125 µM
BPR [25]: 0.03
Structure (SMILES): CCS(=O)(=O)C[C@H](COc1ccc(-n2cnn3cc(-c4ncc(Cl)cn4)cc3c2=O)cc1OC)OC(=O)CN

— ChEMBL document CHEMBL3616440, “Non-basic azolotriazinone MCHR1 antagonists for the treatment of obesity: An empirical brain-exposures-driven candidate selection for in vivo efficacy studies” (Bioorg Med Chem Lett, 2015)
